Values of other authors as cited in patent publication US20110064816A1 (DR. REDDY'S LABORATORIES LTD., priority 2008, published 2011).
Structures can show the parent of a compound that is named as a salt.

Settings: exposed to heat, moisture, light and low pH conditions

Compound: CC(C)c1c(C(=O)Nc2ccccc2)c(-c2ccccc2)c(-c2ccc(F)cc2)n1CC[C@@H](O)C[C@@H](O)CC(=O)O (relative stereo) [Atorvastatin calcium, [R-(R*,R*)]-2-(4-fluorophenyl)-β,δ-dihydroxy-5-(1-methylethyl)-3-phenyl-4-[(phenylamino)carbonyl]-1H-pyrrole-1-heptanoic acid, calcium salt (2:1) trihydrate]
- Degradation from the carboxylic form to a lactone form: susceptible to degradation
